For experiment [1], the target named is CpOGA (Clostridium perfringens, UniProt Q0TR53). Kind of experiment: biochemical. The experiment is classed as binding.
Experiment [2] addresses T1, human OGA (hOGA) (Homo sapiens, UniProt O60502).
T1 sequence (O60502 60-336 limits assumed): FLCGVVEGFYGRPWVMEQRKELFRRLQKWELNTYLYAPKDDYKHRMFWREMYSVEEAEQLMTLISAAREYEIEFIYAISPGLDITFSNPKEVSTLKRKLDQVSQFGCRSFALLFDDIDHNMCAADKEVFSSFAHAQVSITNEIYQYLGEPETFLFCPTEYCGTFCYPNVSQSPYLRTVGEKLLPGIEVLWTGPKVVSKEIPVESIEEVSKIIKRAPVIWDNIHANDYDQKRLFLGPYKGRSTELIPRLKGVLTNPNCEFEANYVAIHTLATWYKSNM
Kind of experiment: Fluorescence polarization displacement of GlcNAcstatin BF from hOGA. As to conditions: FP displacement, 50 nM GlcNAcstatin BF, 250 nM hOGA, TBS pH 7.5. It is filed as binding. On the technique in general: Polarisation of emitted light reports the rotation of a fluorescent probe.

A word on the Ki: it is the equilibrium dissociation constant of an inhibitor or competing ligand from its target.

CpOGA, sequence (Q0TR53 31-1001 limits assumed): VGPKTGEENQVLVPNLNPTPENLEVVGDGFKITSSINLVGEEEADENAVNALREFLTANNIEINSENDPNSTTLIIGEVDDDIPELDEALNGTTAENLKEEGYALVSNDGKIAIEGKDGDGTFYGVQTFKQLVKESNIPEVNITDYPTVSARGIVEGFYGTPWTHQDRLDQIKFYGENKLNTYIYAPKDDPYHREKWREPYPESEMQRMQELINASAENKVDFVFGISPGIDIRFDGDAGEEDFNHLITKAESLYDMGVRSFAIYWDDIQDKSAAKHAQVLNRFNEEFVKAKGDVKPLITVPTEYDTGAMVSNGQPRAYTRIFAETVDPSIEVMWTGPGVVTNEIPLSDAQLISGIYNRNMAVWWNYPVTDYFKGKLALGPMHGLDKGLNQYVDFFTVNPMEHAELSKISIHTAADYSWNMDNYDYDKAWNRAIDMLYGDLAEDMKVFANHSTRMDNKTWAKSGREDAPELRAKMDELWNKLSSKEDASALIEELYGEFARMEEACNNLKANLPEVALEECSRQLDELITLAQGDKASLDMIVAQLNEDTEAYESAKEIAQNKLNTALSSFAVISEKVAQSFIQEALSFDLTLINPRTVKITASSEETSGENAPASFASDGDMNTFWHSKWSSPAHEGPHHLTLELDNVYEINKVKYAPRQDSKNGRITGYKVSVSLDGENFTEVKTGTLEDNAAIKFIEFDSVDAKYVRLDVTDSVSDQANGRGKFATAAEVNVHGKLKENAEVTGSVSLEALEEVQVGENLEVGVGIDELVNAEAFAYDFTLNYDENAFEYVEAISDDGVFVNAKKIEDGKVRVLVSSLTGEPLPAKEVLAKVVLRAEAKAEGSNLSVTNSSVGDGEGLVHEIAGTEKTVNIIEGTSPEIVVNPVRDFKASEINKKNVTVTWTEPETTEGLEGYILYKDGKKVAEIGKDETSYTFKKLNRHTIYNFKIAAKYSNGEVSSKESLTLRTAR

In experiment [1], `FC(F)(F)C1=NCCNC=C1` [5TFD, 5-(trifluoromethyl)-2,3-dihydro-1H-1,4-diazepine] returned a Ki of 146 µM.

`CC(=O)N[C@H]1c2nc(CCc3ccccc3)cn2[C@H](CO)[C@@H](O)[C@@H]1O` [GlcNAcstatin B] yielded a Ki in experiment [2] of 0.0232 µM.

These data come from paper PMC7611149 (ACS chemical biology, 2018).
